Read-outs that look alike come from different tables or passages of the source. Numbered stars: 1 amine (or outer) side, 2 acyl side, 3 side chain; on linkers, the order of the positions; unused ones are H or OH. Bridge positions count the residues as written; N and C are the ends. Square brackets hold non-standard residues; d marks the D form. Peptide text beside a SMILES is read from it. Nle(6-ylidene) = O=C([C@H](CCCC=[*:3])N[*:1])[*:2]; Gly(pent-4-enyl) = C=CCCC[C@H](N)C(=O)O
How the values were obtained:
MTT cytotoxicity assay = assay type: cell-based
HIV-1 NL4-3 = experiment: MT-4 Luc assay; assay type: cell-based; details: MT-4 Luc cells; for concentrations at which significant anti-HIV activity was shown: luciferase signal
HIV-1 IN [1] = molecular target: T1, HIV-1 IN (Human immunodeficiency virus type 1 group M subtype B, UniProt P04585); experiment: Integrase assay, 3′-end processing reaction; assay type: biochemical
HIV-1 (NL4-3 strain) [2] = assay type: cell-based; details: read-out: EC50 (μM) p24 assay, MT-4 cells
HIV-1 (NL4-3 strain) [3] = experiment: MTT anti-HIV assay; assay type: cell-based; details: read-out: EC50 (μM) MTT assay; MT-4 cells, HIV-1 NL4-3, Table 3
mock-infected MT-4 cells = experiment: MTT cytotoxicity assay; assay type: cell-based
HIV-1 IN [4] = molecular target: T1, HIV-1 IN; experiment: Integrase assay, strand transfer reaction; assay type: biochemical
[5] = CC50 (μM) MTT assay, mock infected MT-4 cells, Table 3
[6] = CC50 (μM) MTT assay, mock infected MT-4 cells, Table 4
[7] = both 3′-end processing and strand transfer reactions

CC[C@H](C)[C@H](NC(=O)[C@H](C)NC(=O)[C@H](CCC(=O)O)NC(C)=O)C(=O)N[C@H]1CCCC=CCCC[C@@H](C(=O)N[C@@H](CCC(N)=O)C(=O)N[C@@H](CC(C)C)C(=O)N[C@@H](CC(C)C)C(=O)N[C@@H](Cc2ccccc2)C(=O)N[C@H](C(=O)N[C@@H](Cc2c[nH]cn2)C(=O)N[C@@H](Cc2ccccc2)C(=O)N[C@@H](CCCNC(=N)N)C(=O)N[C@H](C(=O)NCC(=O)N[C@@H](CCCNC(=N)N)C(=O)N[C@@H](CCCNC(=N)N)C(=O)N[C@@H](CCCNC(=N)N)C(=O)N[C@@H](CCCNC(=N)N)C(=O)N[C@@H](CCCNC(=N)N)C(=O)N[C@@H](CCCNC(=N)N)C(=O)N[C@@H](CCCNC(=N)N)C(=O)N[C@@H](CCCNC(=N)N)C(N)=O)[C@@H](C)CC)[C@@H](C)CC)NC(=O)[C@H](CC(C)C)NC(=O)[C@H]([C@@H](C)CC)NC(=O)[C@H](CCCNC(=N)N)NC1=O [compound 17] (Ac-EAI[Nle(6-ylidene)]RIL[Nle(6-ylidene)]QLLFIHFRIGRRRRRRRR-NH2; staple 4-8)
CC50 (MTT cytotoxicity assay; [5]): 7.04 µM | CC50 (MTT cytotoxicity assay; [6]): 6.9 µM | concentrations at which significant anti-HIV activity was shown (HIV-1 NL4-3): above 1.25 μM

CC[C@H](C)[C@H](NC(=O)[C@H](C)NC(=O)[C@H](CCC(=O)O)NC(C)=O)C(=O)N[C@H]1CCCC=CCCC[C@@H](C(=O)N[C@@H](CCC(N)=O)C(=O)N[C@@H](CC(C)C)C(=O)N[C@@H](CC(C)C)C(=O)N[C@@H](Cc2ccccc2)C(=O)N[C@H](C(=O)N[C@@H](Cc2c[nH]cn2)C(=O)N[C@@H](Cc2ccccc2)C(=O)N[C@@H](CCCNC(=N)N)C(=O)N[C@H](C(=O)NCC(=O)N[C@@H](CCCNC(=N)N)C(=O)N[C@@H](CCCNC(=N)N)C(=O)N[C@@H](CCCNC(=N)N)C(=O)N[C@@H](CCCNC(=N)N)C(=O)N[C@@H](CCCNC(=N)N)C(N)=O)[C@@H](C)CC)[C@@H](C)CC)NC(=O)[C@H](CC(C)C)NC(=O)[C@H]([C@@H](C)CC)NC(=O)[C@H](CCCNC(=N)N)NC1=O [compound 21] (Ac-EAI[Nle(6-ylidene)]RIL[Nle(6-ylidene)]QLLFIHFRIGRRRRR-NH2; staple 4-8)
× higher inhibition than compound 6S (HIV-1 IN [1]; [7]): 3–6 × | CC50 (MTT cytotoxicity assay; [6]): 15 µM

CC[C@H](C)[C@H](NC(=O)[C@H](C)NC(=O)[C@H](CCC(=O)O)NC(C)=O)C(=O)N[C@H](C(=O)N[C@@H](CCCNC(=N)N)C(=O)N[C@H](C(=O)N[C@@H](CC(C)C)C(=O)N[C@@H](CCC(N)=O)C(=O)N[C@@H](CCC(N)=O)C(=O)N[C@@H](CC(C)C)C(=O)N[C@@H](CC(C)C)C(=O)N[C@@H](Cc1ccccc1)C(=O)N[C@H](C(=O)N[C@@H](Cc1c[nH]cn1)C(=O)N[C@@H](Cc1ccccc1)C(=O)N[C@@H](CCCNC(=N)N)C(=O)N[C@H](C(=O)NCC(=O)N[C@@H](CCCNC(=N)N)C(=O)N[C@@H](CCCNC(=N)N)C(=O)N[C@@H](CCCNC(=N)N)C(=O)N[C@@H](CCCNC(=N)N)C(=O)N[C@@H](CCCNC(=N)N)C(=O)N[C@@H](CCCNC(=N)N)C(=O)N[C@@H](CCCNC(=N)N)C(=O)N[C@@H](CCCNC(=N)N)C(N)=O)[C@@H](C)CC)[C@@H](C)CC)[C@@H](C)CC)[C@@H](C)CC [compound 2]
inhibitory levels × higher than those of compound 1 (HIV-1 IN [1]; [7]): approximately 30 × | CC50 (MTT cytotoxicity assay): 5.91 µM | concentrations at which significant anti-HIV activity was shown (HIV-1 NL4-3): above 2.5 μM

CC[C@H](C)[C@H](NC(=O)[C@H](C)NC(=O)[C@H](CCC(=O)O)NC(C)=O)C(=O)N[C@H]1CCCC=CCCC[C@@H](C(=O)N[C@@H](CCC(N)=O)C(=O)N[C@@H](CC(C)C)C(=O)N[C@@H](CC(C)C)C(=O)N[C@@H](Cc2ccccc2)C(=O)N[C@H](C(=O)N[C@@H](Cc2c[nH]cn2)C(=O)N[C@@H](Cc2ccccc2)C(=O)N[C@@H](CCCNC(=N)N)C(=O)N[C@H](C(=O)NCC(=O)N[C@@H](CCCNC(=N)N)C(=O)N[C@@H](CCCNC(=N)N)C(=O)N[C@@H](CCCNC(=N)N)C(=O)N[C@@H](CCCNC(=N)N)C(=O)N[C@@H](CCCNC(=N)N)C(=O)N[C@@H](CCCNC(=N)N)C(=O)N[C@@H](CCCNC(=N)N)C(N)=O)[C@@H](C)CC)[C@@H](C)CC)NC(=O)[C@H](CC(C)C)NC(=O)[C@H]([C@@H](C)CC)NC(=O)[C@H](CCCNC(=N)N)NC1=O [compound 23] (Ac-EAI[Nle(6-ylidene)]RIL[Nle(6-ylidene)]QLLFIHFRIGRRRRRRR-NH2; staple 4-8)
CC50 (MTT cytotoxicity assay; [6]): 12 µM

Cc1cn([C@H]2C[C@H](N=[N+]=[N-])[C@@H](CO)O2)c(=O)[nH]c1=O [AZT, reference compound]
EC50 (HIV-1 (NL4-3 strain) [2]; HIV-1 NL4-3, Table 3): 0.02 µM | EC50 (HIV-1 (NL4-3 strain) [2]; HIV-1 NL4-3, Table 4): 0.29 µM | EC50 (HIV-1 (NL4-3 strain) [3]): 0.07 µM | CC50 (mock-infected MT-4 cells): > 100 µM

CC[C@H](C)[C@H](NC(=O)[C@H](C)NC(=O)[C@H](CCC(=O)O)NC(C)=O)C(=O)N[C@H](C(=O)N[C@@H](CCCNC(=N)N)C(=O)N[C@H](C(=O)N[C@@H](CC(C)C)C(=O)N[C@@H](CCC(N)=O)C(=O)N[C@@H](CCC(N)=O)C(=O)N[C@@H](CC(C)C)C(=O)N[C@@H](CC(C)C)C(=O)N[C@@H](Cc1ccccc1)C(=O)N[C@H](C(=O)N[C@@H](Cc1c[nH]cn1)C(=O)N[C@@H](Cc1ccccc1)C(=O)N[C@@H](CCCNC(=N)N)C(=O)N[C@H](C(=O)NCC(N)=O)[C@@H](C)CC)[C@@H](C)CC)[C@@H](C)CC)[C@@H](C)CC [compound 1]
IC50 (HIV-1 IN [1]; IC50 3′-end processing, Table 2): 2.6 ± 0.2 µM | IC50 (HIV-1 IN [1]; IC50 (μM) 3′-end processing, Table 3 batch): 1.62 ± 0.26 µM | IC50 (HIV-1 IN [1]; IC50 (μM) 3′-end processing, Table 4 batch): 2 ± 0.2 µM | IC50 (HIV-1 IN [4]; IC50 (μM) strand transfer, Table 3 batch): 1.34 ± 0.2 µM | IC50 (HIV-1 IN [4]; IC50 (μM) strand transfer, Table 4 batch): 2.2 ± 0.2 µM | IC50 (HIV-1 IN [4]; IC50 strand transfer, Table 2): 1.1 ± 0.08 µM | EC50 (HIV-1 (NL4-3 strain) [2]; HIV-1 NL4-3, Table 3): > 10 µM | EC50 (HIV-1 (NL4-3 strain) [2]; HIV-1 NL4-3, Table 4): > 20 µM | EC50 (HIV-1 (NL4-3 strain) [3]): > 10 µM | CC50 (MTT cytotoxicity assay; [5]): > 10 µM | anti-HIV activity at concentrations below 10 μM (HIV-1 NL4-3; below 10 μM): no significant anti-HIV activity

CC[C@H](C)[C@H](NC(=O)[C@H](C)NC(=O)[C@H](CCC(=O)O)NC(C)=O)C(=O)N[C@H]1CCCC=CCCC[C@@H](C(=O)N[C@@H](CCC(N)=O)C(=O)N[C@@H](CC(C)C)C(=O)N[C@@H](CC(C)C)C(=O)N[C@@H](Cc2ccccc2)C(=O)N[C@H](C(=O)N[C@@H](Cc2c[nH]cn2)C(=O)N[C@@H](Cc2ccccc2)C(=O)N[C@@H](CCCNC(=N)N)C(=O)N[C@H](C(=O)NCC(=O)N[C@@H](CCCNC(=N)N)C(=O)N[C@@H](CCCNC(=N)N)C(=O)N[C@@H](CCCNC(=N)N)C(=O)N[C@@H](CCCNC(=N)N)C(=O)N[C@@H](CCCNC(=N)N)C(=O)N[C@@H](CCCNC(=N)N)C(N)=O)[C@@H](C)CC)[C@@H](C)CC)NC(=O)[C@H](CC(C)C)NC(=O)[C@H]([C@@H](C)CC)NC(=O)[C@H](CCCNC(=N)N)NC1=O [compound 22] (Ac-EAI[Nle(6-ylidene)]RIL[Nle(6-ylidene)]QLLFIHFRIGRRRRRR-NH2; staple 4-8)
× higher inhibitory levels than compounds 20 and 21 (HIV-1 IN [1]; both reactions): 2 × | CC50 (MTT cytotoxicity assay; [6]): 13 µM

C=CCCC[C@H](NC(=O)[C@H](CC(C)C)NC(=O)[C@@H](NC(=O)[C@H](CCCNC(=N)N)NC(=O)[C@H](CCCC=C)NC(=O)[C@@H](NC(=O)[C@H](C)NC(=O)[C@H](CCC(=O)O)NC(C)=O)[C@@H](C)CC)[C@@H](C)CC)C(=O)N[C@@H](CCC(N)=O)C(=O)N[C@@H](CC(C)C)C(=O)N[C@@H](CC(C)C)C(=O)N[C@@H](Cc1ccccc1)C(=O)N[C@H](C(=O)N[C@@H](Cc1c[nH]cn1)C(=O)N[C@@H](Cc1ccccc1)C(=O)N[C@@H](CCCNC(=N)N)C(=O)N[C@H](C(=O)NCC(=O)N[C@@H](CCCNC(=N)N)C(=O)N[C@@H](CCC(=O)O)C(=O)N[C@@H](CCCNC(=N)N)C(=O)N[C@@H](CCC(=O)O)C(=O)N[C@@H](CCCNC(=N)N)C(=O)N[C@@H](CCC(=O)O)C(=O)N[C@@H](CCCNC(=N)N)C(=O)N[C@@H](CCC(=O)O)C(N)=O)[C@@H](C)CC)[C@@H](C)CC [compound 19] (Ac-EAI[Gly(pent-4-enyl)]RIL[Gly(pent-4-enyl)]QLLFIHFRIGRERERERE-NH2)
CC50 (MTT cytotoxicity assay; [5]): > 10 µM | concentrations at which significant anti-HIV activity was shown (HIV-1 NL4-3): 10 µM

CC[C@H](C)[C@H](NC(=O)[C@H](C)NC(=O)[C@H](CCC(=O)O)NC(C)=O)C(=O)N[C@H]1CCCC=CCCC[C@@H](C(=O)N[C@@H](CCC(N)=O)C(=O)N[C@@H](CC(C)C)C(=O)N[C@@H](CC(C)C)C(=O)N[C@@H](Cc2ccccc2)C(=O)N[C@H](C(=O)N[C@@H](Cc2c[nH]cn2)C(=O)N[C@@H](Cc2ccccc2)C(=O)N[C@@H](CCCNC(=N)N)C(=O)N[C@H](C(=O)NCC(=O)N[C@@H](CCCNC(=N)N)C(=O)N[C@@H](CCC(=O)O)C(=O)N[C@@H](CCCNC(=N)N)C(=O)N[C@@H](CCC(=O)O)C(=O)N[C@@H](CCCNC(=N)N)C(=O)N[C@@H](CCC(=O)O)C(=O)N[C@@H](CCCNC(=N)N)C(=O)N[C@@H](CCC(=O)O)C(N)=O)[C@@H](C)CC)[C@@H](C)CC)NC(=O)[C@H](CC(C)C)NC(=O)[C@H]([C@@H](C)CC)NC(=O)[C@H](CCCNC(=N)N)NC1=O [compound 18] (Ac-EAI[Nle(6-ylidene)]RIL[Nle(6-ylidene)]QLLFIHFRIGRERERERE-NH2; staple 4-8)
CC50 (MTT cytotoxicity assay; [5]): > 10 µM | concentrations at which significant anti-HIV activity was shown (HIV-1 NL4-3): above 5 μM

CC[C@H](C)[C@H](NC(=O)[C@H](C)NC(=O)[C@H](CCC(=O)O)NC(C)=O)C(=O)N[C@H]1CCCC=CCCC[C@@H](C(=O)N[C@@H](CCC(N)=O)C(=O)N[C@@H](CC(C)C)C(=O)N[C@@H](CC(C)C)C(=O)N[C@@H](Cc2ccccc2)C(=O)N[C@H](C(=O)N[C@@H](Cc2c[nH]cn2)C(=O)N[C@@H](Cc2ccccc2)C(=O)N[C@@H](CCCNC(=N)N)C(=O)N[C@H](C(=O)NCC(=O)N[C@@H](CCCNC(=N)N)C(=O)N[C@@H](CCCNC(=N)N)C(=O)N[C@@H](CCCNC(=N)N)C(=O)N[C@@H](CCCNC(=N)N)C(N)=O)[C@@H](C)CC)[C@@H](C)CC)NC(=O)[C@H](CC(C)C)NC(=O)[C@H]([C@@H](C)CC)NC(=O)[C@H](CCCNC(=N)N)NC1=O [compound 20] (Ac-EAI[Nle(6-ylidene)]RIL[Nle(6-ylidene)]QLLFIHFRIGRRRR-NH2; staple 4-8)
× higher inhibition than compound 6S (HIV-1 IN [1]; [7]): 3–6 × | CC50 (MTT cytotoxicity assay; [6]): 16 µM
